The term Kd denotes the free concentration of one partner at which half of the binding sites on the other are occupied at equilibrium, for simple one-to-one binding.

Sequence of human TYK2 (JH2domain-pseudokinase) (P29597 556-888): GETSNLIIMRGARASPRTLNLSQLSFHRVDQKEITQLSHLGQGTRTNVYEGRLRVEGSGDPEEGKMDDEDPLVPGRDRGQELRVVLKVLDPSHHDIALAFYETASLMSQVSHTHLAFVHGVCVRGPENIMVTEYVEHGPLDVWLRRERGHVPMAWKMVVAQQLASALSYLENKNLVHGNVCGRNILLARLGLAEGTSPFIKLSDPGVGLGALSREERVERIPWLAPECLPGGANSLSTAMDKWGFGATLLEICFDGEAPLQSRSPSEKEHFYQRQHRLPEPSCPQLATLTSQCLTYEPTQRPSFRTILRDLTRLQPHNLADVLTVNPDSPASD

This experiment concerns the target human TYK2 (JH2domain-pseudokinase) (Homo sapiens (Human), UniProt P29597). Description: TYK2 JH2 Domain Binding Assay (KINOMEscan). The note with it: Table 4, JH2 binding assay; read-out: JH2 Kd.
`COc1c(Nc2cc(Nc3cc(C#N)ccn3)nc3[nH]n(C)c(=O)c23)cccc1-c1nnn(C)n1` [Compound I-32, 2-((4-((2-methoxy-3-(2-methyl-2H-tetrazol-5-yl)phenyl)amino)-2-methyl-3-oxo-2,3-dihydro-1H-pyrazolo[3,4-b]pyridin-6-yl)amino)isonicotinonitrile]: the Kd was over 10 nM.

For `COc1c(C#N)cccc1Nc1cc(NC(=O)C2CC2)nc2[nH]n(C)c(=O)c12` [Compound I-33], the dissociation constant (Kd) was over 10 nM. Regarding `COc1c(C#N)cccc1Nc1cc(Nc2ccc(C)cn2)nc2[nH]n(C)c(=O)c12` [Compound I-34], the Kd is over 10 nM. As for `COCc1ccnc(Nc2cc(Nc3cccc(C#N)c3OC)c3c(=O)n(C)[nH]c3n2)c1` [Compound I-35], the dissociation constant (Kd) was over 10 nM. Consider `COc1c(C#N)cccc1Nc1cc(Nc2ccc(N3CCOCC3)cn2)nc2[nH]n(C)c(=O)c12` [Compound I-36], for which the dissociation constant (Kd) is over 10 nM. `COc1c(C#N)cccc1Nc1cc(Nc2cc(C)c(F)cn2)nc2[nH]n(C)c(=O)c12` [Compound I-37]: the Kd is over 10 nM. Take `COc1c(C#N)cccc1Nc1cc(Nc2ccc(C)nn2)nc2[nH]n(C)c(=O)c12` [Compound I-38]: the Kd is over 10 nM.

On to `COc1c(C#N)cccc1Nc1cc(Nc2cc(C)nc(C)n2)nc2[nH]n(C)c(=O)c12` [Compound I-39], for which the dissociation constant Kd is over 10 nM. In the case of `COc1c(C#N)cccc1Nc1cc(Nc2ccc(N3CCCCC3)cn2)nc2[nH]n(C)c(=O)c12` [Compound I-40], the Kd was over 10 nM.

In the case of `COc1c(C#N)cccc1Nc1cc(Nc2ccc(C#N)cn2)nc2[nH]n(C)c(=O)c12` [Compound I-41], the dissociation constant (Kd) is over 10 nM. With `COc1c(Nc2cc(Nc3cc(C)ccn3)nc3[nH]n(C)c(=O)c23)cccc1-c1nccs1` [Compound I-43] the figure was over 10 nM; with `COc1cc(CO)ccc1Nc1cc(NC(=O)C2CC2)nc2[nH]n(C)c(=O)c12` [Compound I-44], 1 to 10 nM; with `COCc1ccc(Nc2cc(NC(=O)C3CC3)nc3[nH]n(C)c(=O)c23)c(OC)c1` [Compound I-45, N-(4-((2-methoxy-4-(methoxymethyl)phenyl)amino)-2-methyl-3-oxo-2,3-dihydro-1H-pyrazolo[3,4-b]pyridin-6-yl)cyclopropanecarboxamide], 1 to 10 nM. With `COc1c(Nc2cc(NC(=O)C3CC3)nc3[nH]n(C)c(=O)c23)cccc1-c1nc(C)nn1C` [Compound I-46, N-(4-((3-(1,3-dimethyl-1H-1,2,4-triazol-5-yl)-2-methoxyphenyl)amino)-2-methyl-3-oxo-2,3-dihydro-1H-pyrazolo[3,4-b]pyridin-6-yl)cyclopropanecarboxamide], the equilibrium dissociation constant (Kd) was 0.5 to 1 nM. Consider `COc1c(Nc2cc(Nc3cc(C)ccn3)nc3[nH]n(C)c(=O)c23)cccc1-c1ncc(C)s1` [Compound I-47, 4-((2-methoxy-3-(5-methylthiazol-2-yl)phenyl)amino)-2-methyl-6-((4-methylpyridin-2-yl)amino)-1,2-dihydro-3H-pyrazolo[3,4-b]pyridin-3-one], for which the Kd was over 10 nM. On to `COc1c(F)cccc1Nc1cc(NC(=O)C2CC2)nc2[nH]n(C)c(=O)c12` [Compound I-48, N-(4-((3-fluoro-2-methoxyphenyl)amino)-2-methyl-3-oxo-2,3-dihydro-1H-pyrazolo[3,4-b]pyridin-6-yl)cyclopropanecarboxamide], for which the dissociation constant (Kd) lay within 0.5 to 1 nM. For `COc1c(Cl)cccc1Nc1cc(NC(=O)C2CC2)nc2[nH]n(C)c(=O)c12` [Compound I-49, N-(4-((3-chloro-2-methoxyphenyl)amino)-2-methyl-3-oxo-2,3-dihydro-1H-pyrazolo[3,4-b]pyridin-6-yl)cyclopropanecarboxamide], the equilibrium dissociation constant (Kd) fell in the range of 0.5 to 1 nM. Next, `COc1cc(C2CC2)ccc1Nc1cc(NC(=O)C2CC2)nc2[nH]n(C)c(=O)c12` [Compound I-50, N-(4-((4-cyclopropyl-2-methoxyphenyl)amino)-2-methyl-3-oxo-2,3-dihydro-1H-pyrazolo[3,4-b]pyridin-6-yl)cyclopropanecarboxamide]: 1 to 10 nM; `COc1cc(C2CCC2)ccc1Nc1cc(NC(=O)C2CC2)nc2[nH]n(C)c(=O)c12` [Compound I-51]: over 10 nM.

Consider `COc1c(Nc2cc(NC(=O)C3CC3)nc3[nH]n(C)c(=O)c23)cccc1-c1nnnn1C` [Compound I-52], for which the dissociation constant (Kd) fell in the range of 1 to 10 nM. In the case of `COc1c(Nc2cc(NC(=O)C3CC3)nc3[nH]n(C)c(=O)c23)cccc1-c1nc(C)n(C)n1` [Compound I-53], the Kd fell in the range of 0.1 to 0.5 nM. In the case of `COc1c(Nc2cc(NC(=O)C3CC3)nc3[nH]n(C)c(=O)c23)cccc1-c1ncnn1C` [Compound I-54, N-(4-((2-methoxy-3-(1-methyl-1H-1,2,4-triazol-5-yl)phenyl)amino)-2-methyl-3-oxo-2,3-dihydro-1H-pyrazolo[3,4-b]pyridin-6-yl)cyclopropanecarboxamide], the dissociation constant Kd was in the range of 0.5 to 1 nM. In the case of `COc1c(Nc2cc(NC(=O)C3CC3)nc3[nH]n(C)c(=O)c23)cccc1-c1cnn(C)c1` [Compound I-55, N-(4-((2-methoxy-3-(1-methyl-1H-pyrazol-4-yl)phenyl)amino)-2-methyl-3-oxo-2,3-dihydro-1H-pyrazolo[3,4-b]pyridin-6-yl)cyclopropanecarboxamide], the dissociation constant Kd lay in the range of 0.5 to 1 nM. Take `COc1c(Nc2cc(NC(=O)C3CC3)nc3[nH]n(C)c(=O)c23)cccc1-n1cccn1` [Compound I-56, N-(4-((2-methoxy-3-(1H-pyrazol-1-yl)phenyl)amino)-2-methyl-3-oxo-2,3-dihydro-1H-pyrazolo[3,4-b]pyridin-6-yl)cyclopropanecarboxamide]: the Kd was 0.5 to 1 nM.

With `COc1c(Nc2cc(NC(=O)C3CC3)nc3[nH]n(C)c(=O)c23)cccc1-c1ccn(C)n1` [Compound I-57], the equilibrium dissociation constant (Kd) was under 0.1 nM. On to `COc1c(Nc2cc(Nc3ccc(N4CCCC4)cn3)nc3[nH]n(C)c(=O)c23)cccc1-c1nnn(C)n1` [Compound I-58, 4-((2-methoxy-3-(2-methyl-2H-tetrazol-5-yl)phenyl)amino)-2-methyl-6-((5-(pyrrolidin-1-yl)pyridin-2-yl)amino)-1,2-dihydro-3H-pyrazolo[3,4-b]pyridin-3-one], for which the Kd is over 10 nM.

Regarding `COc1c(Nc2cc(Nc3ccc(C4CC4)cn3)nc3[nH]n(C)c(=O)c23)cccc1-c1nnn(C)n1` [Compound I-59, 6-((5-cyclopropylpyridin-2-yl)amino)-4-((2-methoxy-3-(2-methyl-2H-tetrazol-5-yl)phenyl)amino)-2-methyl-1,2-dihydro-3H-pyrazolo[3,4-b]pyridin-3-one], the dissociation constant Kd fell in the range of 0.1 to 0.5 nM. Turning to `COc1c(Nc2cc(Nc3cccc(C(F)(F)F)n3)nc3[nH]n(C)c(=O)c23)cccc1-c1nnn(C)n1` [Compound I-60, 4-((2-methoxy-3-(2-methyl-2H-tetrazol-5-yl)phenyl)amino)-2-methyl-6-((6-(trifluoromethyl)pyridin-2-yl)amino)-1,2-dihydro-3H-pyrazolo[3,4-b]pyridin-3-one], the Kd is 0.1 to 0.5 nM. `COc1ccccc1Nc1cc(NC(=O)C2CC2)nc2[nH]n(C)c(=O)c12` [Compound I-61, N-(4-((2-methoxyphenyl)amino)-2-methyl-3-oxo-2,3-dihydro-1H-pyrazolo[3,4-b]pyridin-6-yl)cyclopropanecarboxamide]: the Kd lay in the range of 1 to 10 nM. For the compound `COc1c(Nc2cc(NC(=O)C3CC3)nc3[nH]n(C)c(=O)c23)cccc1-c1n[nH]c(C)n1` [Compound I-62], the dissociation constant (Kd) was under 0.1 nM. Regarding `COc1c(Nc2cc(Nc3cccc(N4CC(OC)C4)n3)nc3[nH]n(C)c(=O)c23)cccc1-c1nnn(C)n1` [Compound I-63, 4-((2-methoxy-3-(2-methyl-2H-tetrazol-5-yl)phenyl)amino)-6-((6-(3-methoxyazetidin-1-yl)pyridin-2-yl)amino)-2-methyl-1,2-dihydro-3H-pyrazolo[3,4-b]pyridin-3-one], the Kd was in the range of 0.1 to 0.5 nM.

Take `COc1c(Nc2cc(Nc3cncc(C#N)n3)nc3[nH]n(C)c(=O)c23)cccc1-c1nnn(C)n1` [Compound I-64, 6-((4-((2-methoxy-3-(2-methyl-2H-tetrazol-5-yl)phenyl)amino)-2-methyl-3-oxo-2,3-dihydro-1H-pyrazolo[3,4-b]pyridin-6-yl)amino)pyrazine-2-carbonitrile]: the Kd is under 0.1 nM. Next, `COc1c(Nc2cc(Nc3cccc(C4CC4)n3)nc3[nH]n(C)c(=O)c23)cccc1-c1nnn(C)n1` [Compound I-65, 6-((6-cyclopropylpyridin-2-yl)amino)-4-((2-methoxy-3-(2-methyl-2H-tetrazol-5-yl)phenyl)amino)-2-methyl-1,2-dihydro-3H-pyrazolo[3,4-b]pyridin-3-one]: 0.1 to 0.5 nM; `CCNC(=O)c1cccc(Nc2cc(Nc3cccc(-c4nnn(C)n4)c3OC)c3c(=O)n(C)[nH]c3n2)n1` [Compound I-66, N-ethyl-6-((4-((2-methoxy-3-(2-methyl-2H-tetrazol-5-yl)phenyl)amino)-2-methyl-3-oxo-2,3-dihydro-1H-pyrazolo[3,4-b]pyridin-6-yl)amino)picolinamide]: 0.5 to 1 nM. Turning to `COCc1ccc(Nc2cc(Nc3cccc(C(F)(F)F)n3)nc3[nH]n(C)c(=O)c23)c(OC)c1` [Compound I-67, 4-((2-methoxy-4-(methoxymethyl)phenyl)amino)-2-methyl-6-((6-(trifluoromethyl)pyridin-2-yl)amino)-1,2-dihydro-3H-pyrazolo[3,4-b]pyridin-3-one], the Kd lay in the range of 1 to 10 nM.

For the compound `COCc1ccc(Nc2cc(Nc3cccc(C#N)n3)nc3[nH]n(C)c(=O)c23)c(OC)c1` [Compound I-68, 6-((4-((2-methoxy-4-(methoxymethyl)phenyl)amino)-2-methyl-3-oxo-2,3-dihydro-1H-pyrazolo[3,4-b]pyridin-6-yl)amino)picolinonitrile], the Kd lay in the range of 0.1 to 0.5 nM. On to `COc1cc(C(=O)N2CCCC2)ccc1Nc1cc(NC(=O)C2CC2)nc2[nH]n(C)c(=O)c12` [Compound I-70, N-(4-((2-methoxy-4-(pyrrolidine-1-carbonyl)phenyl)amino)-2-methyl-3-oxo-2,3-dihydro-1H-pyrazolo[3,4-b]pyridin-6-yl)cyclopropanecarboxamide], for which the Kd is 0.1 to 0.5 nM.

Source of the values: patent US10323036B2 (Nimbus Lakshmi, Inc., priority 2016, dated 2019).
